As usually defined, the chromatographic logP is lipophilicity estimated from chromatographic retention. A high value points to a more lipophilic compound.

The first data set can be described thus: Measurement of Log P values by HPLC on reversed phase columns (EEC directive 79/831 Annex V.A8), methods [a], [b], [c]. It counts as physicochemical. Conditions: method [a]: LC-UV, acidic range, 0.1% formic acid in water and acetonitrile as eluent (10% to 95% acetonitrile); Table 3, compounds of formula (1).
Procedure: Measurement of Log P values as provided herein was performed according to EEC directive 79/831 Annex V.A8 by HPLC (High Performance Liquid Chromatography) on reversed phase columns with the following methods: • ^[a]
In the case of `CC(=O)c1cccc(Oc2nnc(Cl)cc2C(=O)O)c1` [Compound 1-093], the LogP was 1.01^[a].

On to `Cc1cc(C(=O)O)c(Oc2cccc(C(F)F)c2)nn1` [Compound 1-098], for which the LogP is 1.36^[a].

Turning to `CC(C)OC(=O)c1cc(Cl)nnc1Oc1cncc(C(F)F)c1` [Compound 1-102], the LogP is 2.82^[a].

For `CNc1c(Cl)nnc(Oc2cccc(C3CC3)c2F)c1C(=O)O` [Compound 1-116], the LogP is 1.97^[a].

For the compound `Cc1c(Cl)nnc(Oc2cccc(C(F)F)c2F)c1C(=O)O` [Compound 1-117], the LogP is 1.49^[a].

In the case of `Cc1c(Cl)nnc(Oc2cccc(Cl)c2F)c1C(=O)O` [Compound 1-122], the LogP was 1.68^[a].

Turning to `Cc1cc(C(=O)O)c(Oc2cccc(C(F)(F)F)c2)nn1` [Compound 1-125], the LogP is 1.92^[a].

With `O=C(O)c1cc(I)nnc1Oc1cccc(C(F)(F)F)c1` [Compound 1-127], the LogP was 2.08^[a].

The same data set, now with this note: method [a]: LC-UV, acidic range, 0.1% formic acid in water and acetonitrile as eluent; Table 5, compounds of formula (2).
Turning to `C#Cc1ccc(C(F)(F)CN)c(C)c1` [Compound 2-01], the LogP was 0.93^[a].

Turning to `Cc1cc(C)c(C(F)(F)CN)c(F)c1` [Compound 2-03], the LogP was 0.95^[a].

In the case of `NCC(F)(F)c1cccc(Br)c1Cl` [Compound 2-04], the LogP is 0.87^[a].

Staying with this data set, now noted: method [a]: LC-UV, acidic range, 0.1% formic acid in water and acetonitrile as eluent; Table 9, compounds of formula (4).
`CC=Cc1cccc(O)c1F` [Compound 4-01]: the LogP was 2.33^[a].

Staying with this data set, now noted: reversed-phase HPLC column, HPLC method [a].
For `Cc1cc(C2CC2)ccc1C(F)(F)CNC(=O)c1cc(Cl)nnc1Oc1cccc(C(F)(F)F)c1` [Compound I-240, 6-chloro-N-[2-(4-cyclopropyl-2-methyl-phenyl)-2,2-difluoro-ethyl]-3-[3-(tri-fluoromethyl)phenoxy]pyridazine-4-carboxamide], the chromatographic logP turned out to be 4.77.

`CCc1c(Cl)nnc(Oc2cccc(C(F)(F)F)c2)c1C(=O)NCC(F)(F)c1ccc(Cl)cc1` [Compound I-254, 6-chloro-N-[2-(4-chlorophenyl)-2,2-difluoro-ethyl]-5-ethyl-3-[3-(trifluoromethyl)phenoxy]pyridazine-4-carboxamide] displayed a chromatographic logP of 4.51.

`COC(=O)N(CC(F)(F)c1ccc(C)cc1C)C(=O)c1cc(Cl)nnc1Oc1cccc(C(F)(F)F)c1` [Compound I-335, methyl N-[6-chloro-3-[3-(trifluoromethyl)phenoxy]pyridazine-4-carbonyl]-N-[2-(2,4-dimethylphenyl)-2,2-difluoro-ethyl]carbamate]: the chromatographic logP is 5.19.

`Cc1ccc(C(F)(F)CNC(=O)c2c(Oc3cccc(C(F)(F)F)c3)nnc(Cl)c2NC2COC2)c(C)c1` [Compound I-408, 6-chloro-N-[2-(2,4-dimethylphenyl)-2,2-difluoro-ethyl]-5-(oxetan-3-ylamino)-3-[3-(trifluoromethyl)phenoxy]pyridazine-4-carboxamide]: the chromatographic logP worked out at 3.85.

The data set is the same for the next values; noted with them: reversed-phase HPLC column, HPLC method [b].
The compound `Cc1ccc(C(F)(F)CNC(=O)c2c(Oc3cccc(C(F)(F)F)c3)nnc(Cl)c2NC2COC2)c(C)c1` [Compound I-408, 6-chloro-N-[2-(2,4-dimethylphenyl)-2,2-difluoro-ethyl]-5-(oxetan-3-ylamino)-3-[3-(trifluoromethyl)phenoxy]pyridazine-4-carboxamide] came in with a chromatographic logP of 3.94.

The data set is the same for the next values; noted with them: reversed-phase HPLC column, HPLC on reversed phase column, method [a].
For `Cc1ccc(C(F)(F)CNC(=O)c2cc(Cl)nnc2Oc2cccc(C(F)(F)F)c2)c(C)c1` [Compound I-014, 6-chloro-N-[2-(2,4-dimethylphenyl)-2,2-difluoro-ethyl]-3-[3-(trifluoromethyl)phenoxy]pyridazine-4-carboxamide], the chromatographic logP is 4.46.

For the compound `Cc1ccc(C(F)(F)CNC(=O)c2c(Oc3cccc(C(F)(F)F)c3)nnc(Cl)c2I)c(C)c1` [Compound I-020, 6-chloro-N-[2-(2,4-dimethylphenyl)-2,2-difluoro-ethyl]-5-iodo-3-[3-(trifluoromethyl)phenoxy]pyridazine-4-carboxamide], the chromatographic logP was determined as 4.61.

Compound `COCCc1c(Cl)nnc(Oc2cccc(C(F)(F)F)c2)c1C(=O)NCC(F)(F)c1ccc(Br)cc1Cl` [Compound I-070, N-[2-(4-bromo-2-chloro-phenyl)-2,2-difluoro-ethyl]-6-chloro-5-(2-methoxyethyl)-3-[3-(trifluoromethyl)phenoxy]pyridazine-4-carboxamide] yielded a chromatographic logP of 4.77.

With `Cc1ccc(CCNC(=S)c2cc(C)nnc2Oc2cccc(C(F)(F)F)c2)c(C)c1` [Compound I-094, N-[2-(2,4-dimethylphenyl)ethyl]-6-methyl-3-[3-(trifluoro-methyl)phenoxy]pyridazine-4-carbothioamide], the chromatographic logP was determined as 4.69.

The data set is the same for the next values; noted with them: reversed-phase HPLC column, method [a].
On to `O=C(NCC(F)(F)c1ccc(Br)cc1Cl)c1cc(Cl)nnc1Cl` [Compound 3-10, N-[2-(4-bromo-2-chloro-phenyl)-2,2-difluoro-ethyl]-3,6-dichloro-pyridazine-4-carboxamide], for which the chromatographic logP was determined as 3.29.

Regarding `Cc1ccc(C(F)(F)CNC(=O)c2cc(I)nnc2Oc2cccc(C(F)(F)F)c2)c(C)c1` [Compound I-461, N-[2-(2,4-dimethylphenyl)-2,2-difluoro-ethyl]-6-iodo-3-[3-(trifluoromethyl)phenoxy]pyridazine-4-carboxamide], the chromatographic logP was found to be 4.67.

As to `O=C(NCC(F)(F)c1ccc(Br)cc1Cl)c1cc(Cl)nnc1Oc1cccc(F)c1F` [Compound I-530, N-[2-(4-bromo-2-chloro-phenyl)-2,2-difluoro-ethyl]-6-chloro-3-(2,3-difluorophenoxy)pyridazine-4-carboxamide], the chromatographic logP is 4.27.

Consider `Cc1ccc(C(F)(F)CNC(=O)c2c(Oc3cccc(C(F)(F)F)c3)nnc(Cl)c2-c2cccnc2)c(C)c1` [Compound I-550, 6-chloro-N-[2-(2,4-dimethylphenyl)-2,2-difluoro-ethyl]-5-(3-pyridyl)-3-[3-(trifluoromethyl)phenoxy]pyridazine-4-carboxamide], for which the chromatographic logP was 3.99.

In turn, `Cc1ccc(C(F)(F)CNC(=O)c2cc(C)nnc2Oc2cccc(C3CCC3)c2)c(C)c1` [Compound I-564, 3-(3-cyclobutylphenoxy)-N-[2-(2,4-dimethylphenyl)-2,2-difluoro-ethyl]-6-methyl-pyridazine-4-carboxamide] yielded a chromatographic logP of 3.85.

Compound `CSc1cc(C(=O)NCC(F)(F)c2ccc(C)cc2C)c(Oc2cccc(C(F)(F)F)c2)nn1` [Compound I-767, N-[2-(2,4-dimethylphenyl)-2,2-difluoro-ethyl]-6-methylsulfanyl-3-[3-(trifluoromethyl)phenoxy]pyridazine-4-carboxamide] gave a chromatographic logP of 4.72.

The data set is the same for the next values; noted with them: reversed-phase HPLC column, method [a]: LC-UV, acidic range, 0.1% formic acid in water and acetonitrile as eluent (10% to 95% acetonitrile); Table 3, compounds of formula (1).
In turn, `CCOC(=O)c1cc(Cl)nnc1Oc1cncc(C(F)(F)F)c1` [Compound 1-088] returned a chromatographic logP of 3.

`COC(=O)c1cc(Cl)nnc1Oc1cccc(C2CC2)c1F` [Compound 1-099] came in with a chromatographic logP of 3.45.

In the case of `COC(=O)c1cc(C)nnc1Oc1cccc(C2CC2)c1F` [Compound 1-100], the chromatographic logP was determined as 2.89.

The compound `COC(=O)c1c(Oc2cccc(C3CC3)c2F)nnc(Cl)c1C` [Compound 1-101] showed a chromatographic logP of 3.7.

Regarding `CCOC(=O)c1cc(C)nnc1Oc1cccc(C2CC2)c1F` [Compound 1-112], the chromatographic logP came out at 3.29.

On to `CCOC(=O)c1cc(Cl)nnc1Oc1cccc(Cl)c1F` [Compound 1-119], for which the chromatographic logP stood at 3.6.

`CCOC(=O)c1c(Oc2cccc(Cl)c2F)nnc(Cl)c1C` [Compound 1-121] had a chromatographic logP of 3.88.

`COC(=O)c1cc(Cl)nnc1Oc1cccc(C(F)F)c1` [Compound 1-124] registered a chromatographic logP of 2.76.

Compound `CCOC(=O)c1cc(Cl)nnc1Oc1cccc(Br)c1` [Compound 1-130] showed a chromatographic logP of 3.65.

Staying with this data set, now noted: reversed-phase HPLC column, method [b].
`O=C(NCC(F)(F)c1ccc(Br)cc1Cl)c1cc(Cl)nnc1Cl` [Compound 3-10, N-[2-(4-bromo-2-chloro-phenyl)-2,2-difluoro-ethyl]-3,6-dichloro-pyridazine-4-carboxamide] showed a chromatographic logP of 3.24.

For the origin of these results see patent US20230165252A1, “ACTIVE COMPOUND COMBINATIONS” (Bayer Aktiengesellschaft, priority 2020, published 2023).
